Eleven molecules from patent publication US11529511B2, “Using alternating electric fields to increase cell membrane permeability” (The Board of Trustees of the Leland Stanford Junior …, priority 2018, dated 2022) can be followed below.

Assay [1] has as its system U87-MG cells. The assay can be described thus: 5-ALA uptake measured by PpIX fluorescence, single U87-MG culture. In kind it is cell-based, human. The protocol:
Experiments were performed to determine the effects of TTFields on uptake of 5-ALA (as measured by PpIX accumulation and its resultant fluorescence) in glioblastoma cells. Because it is difficult to distinguish the margin between tumor and normal cells using the present 5-ALA bioassay, the measurement of PpIX fluorescence was used to address this issue. Investigations were run to determine whether permeation of 5-ALA through the cellular membrane and into the glioblastoma cells could be increased with TTFields exposure. U87-MG cells were exposed or unexposed to TTFields, each for durations of 6-24 h.
All monovariant statistical comparisons between no TTFields vs. TTFields samples done by Student's t-test for n=3 experiments per time point.

For assay [2], the system named is U87-MG GBM on PCS-201 fibroblast co-cultures. The assay can be described thus: 5-ALA uptake (PpIX fluorescence) in U87-MG GBM on PCS-201 fibroblast co-cultures.
In assay [3] the test system is U87-MG/eGFP-fLuc cells. The assay can be described thus: Reversibility of the TTFields effect on uptake (BLI, PpIX, Dextran-FITC fluorescence). The class given is cell-based, human. Particulars: TTFields 24 h vs. none vs. TTFields 24 h followed by 24 h no TTFields. From the text:
All experimental conditions were done in triplicate.

Assay [4] has as its system MDA-MB-435 human melanoma cell line cells. The assay can be described thus: Permeability to 7-AAD under alternating electric fields, flow cytometry. The class given is cell-based. The following applies: 150 kHz, 24 h. The protocol:
After this 15 minute period, alternating electric field application was terminated and the cells were incubated at room temperature for an additional 15 minutes.
After this 24 hour period, the alternating electric fields were turned off for 15 minutes, after which the 7-AAD was added. After waiting an additional 15 minutes, the percentage of cells with increased accumulation of the fluorescent 7-AAD was determined using flow cytometry.
(A flow cytometer gives signals particle by particle.)

Assay [5] concerns U87-MG cells. The assay can be described thus: Timing of permeability to 7-AAD after cessation of the field, flow cytometry. The class given is cell-based, human. Particulars: 300 kHz, 1.62 V/cm RMS, 24 h; 7-AAD added 15 minutes prior to cessation of the field. The protocol:
FIG. 7D depicts the results of an experiment to test how quickly the permeability drops back down after cessation of the alternating electric fields. More specifically, 7-Aminoactinomycin D (7-AAD) is a fluorescent chemical compound with a strong affinity for DNA. […] 7-AAD was introduced into samples at five different times: 15 minutes prior to the cessation of the alternating electric field; immediately after cessation of the alternating electric field; and 15, 30, and 60 minutes after cessation of the alternating electric field. In each case, the cells were incubated with 7-AAD for 30 minutes after introduction of the 7-AAD, followed by flow cytometry analysis of the percentage of cells with increased accumulation of the fluorescent 7-AAD for each of the different timings.

The subject of assay [6] is U87-MG/eGFP-fLuc cells. Particulars: TTFields 4 V/cm, 200 kHz, 0.5-24 h vs. no TTFields.
Procedure: U87-MG/eGFP-fLuc cells were seeded on Thermanox glass coverslips, allowed to settle and grow, and then subjected to either TTFields or no TTFields.
The coverslips were transferred to a ceramic dish of the Inovitro™ system, which in turn was mounted onto Inovitro™ base plates (Novocure Ltd., Haifa, Israel). Tumor treating fields at 200 kHz (1-4 V/cm) were applied through an Inovitro™ power generator. Incubator ambient temperatures spanned 20-27° C. with a target temperature of 37° C. in the ceramic dishes upon application of the TTFields. Duration of TTFields exposure lasted anywhere from 0.5 to 72 h, after which coverslips were removed and processed for the appropriate bioassays (see below). For reversibility experiments, the TTFields-exposed coverslips were transferred to a regular incubator without TTFields exposure for 24 h (off TTFields period to assess for reversibility of the TTFields effect on cell membrane permeability) prior to processing for the appropriate bioassays. Culture media were exchanged manually every 24 h throughout the experiments to account for evaporation. Corresponding control experiments (no TTFields) were done by placing equivalent coverslips within 6-well or 12-well plates into a conventional humidified tissue culture incubator (37° C., 95% air/5% CO2) and cells grown in parallel with the TTFields-exposed coverslips. […]
The subject of the next assay is GBM39/Luc cells. Briefly: Drug sensitivity and synergy with TTFields. In kind it is cell-based, human. The following applies: TTFields for 3 days vs. no TTFields.
The next assay has as its system GBM39 cells. Briefly: Drug sensitivity with TTFields. In kind it is cell-based, human. The following applies: TTFields for 3 days vs. no TTFields.
Another assay concerns pcGBM2/GFP-Luc cells. Particulars: TTFields for 3 days vs. no TTFields.
The next assay relates to U87-MG/GFP-Luc cells. Briefly: Drug sensitivity and synergy with TTFields. In kind it is cell-based, human. The following applies: TTFields for 3 days vs. no TTFields.
For another assay, the system named is glioblastoma patients. Briefly: Survival of glioblastoma patients, TTFields plus temozolomide vs. temozolomide alone. The following applies: after 1 year of TTFields exposure. In kind it is in vivo, human. From the text:
The treatment of glioblastoma (GBM) using alternating electric fields is a novel, validated therapy that has become an additional modality (after surgery chemoradiation and chemotherapy) for anti-cancer treatments. Intermediate frequency alternating electric fields (100-500 kHz) have been studied in detail. […] In the context of treating tumors, alternating electric fields at these frequencies are often referred to as “tumor treating fields” or “TTFields.”
Recurrence of GBM is inevitable and the median time to first recurrence despite standard therapy is approximately 7 months. […] TTFields compliance (≥75% vs. <75%) was an independent predictor of overall survival in the retrospective analysis of the full EF-14 trial dataset and the duration of use of TTFields was also found to affect overall survival. […] Namely, a correlation between the length of TTFields exposure and the duration of its effect on cell membrane permeability after cessation of TTFields was observed. At lengths of TTFields exposure of 0.5-3 h, the duration in BLI augmentation (compared to no TTFields conditions) lasted about 5 min. However, at TTFields exposures of 12-25 h, this difference in BLI between TTFields and no TTFields conditions lasted for more than 20 min.

The test system of the next assay is human glioblastoma cells. Briefly: Growth inhibition by TTFields in conjunction with Withaferin A. In kind it is cell-based. From the text: In this figure, 5-ALA=5-aminolevulinic acid; Ethidium D=ethidium bromide; and FITC=fluorescein isothiocyanate.
Assay [7] has as its system U87-MG/eGFP-fLuc cells. The assay can be described thus: Annexin-V-APC binding (apoptosis) by fluorescence microscopy. The class given is cell-based, human. Particulars: 21 μM, TTFields-unexposed. The protocol: To test if the imposition of TTFields affects cell membrane properties, and thus membrane permeability, the effect of TTFields on the behavior of fluorescently tagged reagents that bind to the cellular membrane was determined. Initially, the impact of TTFields on the binding of Annexin-V-APC to the membrane of U87-MG/eGFP-fLuc cells was measured. Annexin-V-APC binding is a signature of early apoptosis which is characterized by ruffling of the membrane.

For another assay, the system named is KR158B. The assay can be described thus: Bioluminescence of Renilla luciferase-expressing astrocytoma cells, TTFields vs. no TTFields. The class given is cell-based, murine. The protocol:
Studies were then performed that validate the hypothesis.
Renilla luciferase activity is not dependent upon ATP and magnesium (as opposed to firefly luciferase). Thus, it is believed that the induction of bioluminescence by TTFields was not due to alterations in endogenous pools of ATP.

The test system of assay [8] is MDA-MB-435 cells, wild type. The assay can be described thus: Intracellular accumulation of doxorubicin under alternating electric fields. The class given is cell-based, human. The following applies: 10 μM, 1 h; 150 kHz, 1.62 V/cm vs. no field.
The test system of the next assay is MDA-MB-235 cells. The assay can be described thus: Drug sensitivity and synergy with TTFields. The class given is cell-based. The following applies: TTFields for 3 days vs. no TTFields.
A further assay has as its system MES-SA cells. The assay can be described thus: Intracellular accumulation of doxorubicin under 150 kHz alternating electric fields. The class given is cell-based. Particulars: 10 μM, 1 h, 1.62 V/cm RMS, 24 hours vs. no field.
In assay [9] the test system is MDA-MB-435 cells, doxorubicin resistant. The assay can be described thus: Intracellular accumulation of doxorubicin under alternating electric fields. In kind it is cell-based, human. Particulars: 10 μM, 1 h; 150 kHz, 1.62 V/cm vs. no field.
Assay [10] has as its system MCF-7 cells, mitoxantrone resistant. The assay can be described thus: Intracellular accumulation of mitoxantrone under alternating electric fields. In kind it is cell-based, human. Particulars: 2 μM, 1 h; 150 kHz, 1.62 V/cm vs. no field. The protocol:
(§1) The intracellular accumulation of mitoxantrone was then measured.

A further assay deals with MCF-7 cells, wild type. The assay is described as above. The following applies: 2 μM, 1 h; 150 kHz, 1.62 V/cm vs. no field. In kind it is cell-based, human. The protocol:
as §1

The target in another assay is T1, firefly luciferase (Photinus pyralis, UniProt P08659).
T1 construct: purchased Sigma Aldrich Inc SRE0045-2MG
Briefly: Activity of purified firefly luciferase exposed to TTFields. Particulars: TTFields vs. no TTFields, p<0.01. In kind it is biochemical.

T1 sequence (P08659 whole entry): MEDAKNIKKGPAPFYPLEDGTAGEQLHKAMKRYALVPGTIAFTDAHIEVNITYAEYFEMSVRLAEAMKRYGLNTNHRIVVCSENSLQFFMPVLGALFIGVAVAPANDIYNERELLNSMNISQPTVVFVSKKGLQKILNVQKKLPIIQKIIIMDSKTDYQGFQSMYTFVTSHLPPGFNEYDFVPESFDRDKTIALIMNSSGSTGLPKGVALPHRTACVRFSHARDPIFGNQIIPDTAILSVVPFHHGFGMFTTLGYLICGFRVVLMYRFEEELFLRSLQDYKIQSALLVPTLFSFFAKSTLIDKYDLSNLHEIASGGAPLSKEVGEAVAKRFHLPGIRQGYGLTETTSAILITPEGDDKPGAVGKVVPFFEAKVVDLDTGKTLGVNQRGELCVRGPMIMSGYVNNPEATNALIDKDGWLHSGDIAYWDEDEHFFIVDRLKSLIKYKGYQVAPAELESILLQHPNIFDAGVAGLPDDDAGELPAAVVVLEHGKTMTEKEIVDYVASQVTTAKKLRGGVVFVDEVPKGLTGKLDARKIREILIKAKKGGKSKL

As to `NCC(=O)CCC(=O)O` [5-ALA, 5-aminolevulinic acid], the “uptake (PpIX fluorescence)” value with U87-MG cells [1] (6 h TTFields (200 kHz) vs. no TTFields, p=0.047) was “significantly increased uptake”; in the assay with U87-MG cells [1] (24 h TTFields (200 kHz) vs. no TTFields, p=0.011) it was “increase was maintained”. Moreover, the “rate of PpIX fluorescence intensity increase” value in assay [2] (TTFields 2, 6, 24 h vs. unexposed co-cultures, p<0.001) is “significantly augmented”. The “tumor to normal cell ratio for PpIX fluorescence” value in assay [2] (TTFields vs. no TTFields) is on record as “significantly enhances”. Also, in the assay on U87-MG/eGFP-fLuc cells [3], the “uptake with field and after cessation of the field” value is given as “reversibly increase uptake”.

Turning to `Cc1c2oc3c(C)c(N)cc(C(=O)N[C@@H]4C(=O)N[C@H](C(C)C)C(=O)N5CCC[C@H]5C(=O)N(C)CC(=O)N(C)[C@@H](C(C)C)C(=O)O[C@@H]4C)c3nc-2c(C(=O)N[C@@H]2C(=O)N[C@H](C(C)C)C(=O)N3CCC[C@H]3C(=O)N(C)CC(=O)N(C)[C@@H](C(C)C)C(=O)O[C@@H]2C)c(N)c1=O` [7-AAD, 7-Aminoactinomycin D], the “percentage of cells with increased accumulation of 7-AAD” value in assay [4] (1.62V/cm, 7-AAD added 15 minutes after fields turned off) is approximately 20%; in assay [4] (1.62 V/cm, 7-AAD added for the last 15 minutes of the field) it was approximately 66%; with U87-MG cells [5], “significant increase in accumulation”.

Turning to `O=C(O)[C@H]1CSC(c2nc3ccc(O)cc3s2)=N1` [D-luciferin], the “permeation of the luciferase substrate through the plasma membrane (bioluminescence)” value in the assay on U87-MG/eGFP-fLuc cells [6] is “increased permeation”. The “uptake with field and after cessation of the field” value in the assay on U87-MG/eGFP-fLuc cells [3] is recorded as “reversibly increase uptake”.

For the molecule `CCc1c2c(nc3ccc(OC(=O)N4CCC(N5CCCCC5)CC4)cc13)-c1cc3c(c(=O)n1C2)COC(=O)[C@]3(O)CC` [Irinotecan], the “sensitivity of cells to the drug” value with GBM39/Luc cells is “improves the sensitivity”.

`O=NN(CCCl)C(=O)NC1CCCCC1` [Lomustine]: the “sensitivity of cells to the drug” value in the assay on GBM39 cells, with pcGBM2/GFP-Luc cells and in the assay on U87-MG/GFP-Luc cells was “improves the sensitivity” each time.

`Cn1nnc2c(C(N)=O)ncn2c1=O` [Temozolomide]: the “percent increase in overall survival” value in the assay on glioblastoma patients was found to be 32%.

For the molecule `CC1=C(CO)C(=O)O[C@@H]([C@@H](C)[C@H]2CC[C@H]3[C@@H]4C[C@H]5O[C@]56[C@@H](O)C=CC(=O)[C@]6(C)[C@H]4CC[C@]23C)C1` [Withaferin A], in the assay on human glioblastoma cells, the “growth inhibition in conjunction with TTFields” value is recorded as “synergistically inhibited the growth”. Also, in the assay on U87-MG/eGFP-fLuc cells [7], the “Annexin-V-APC binding (positive control for apoptosis)” value is “could be visualized”.

With `Oc1ccc(Cc2nc3c(Cc4ccccc4)nc(-c4ccc(O)cc4)cn3c2O)cc1` [coelenterazine], the “permeation of the luciferase substrate through the plasma membrane (bioluminescence)” value in the assay on KR158B is on record as “increased permeation”.

For the molecule `COc1cccc2c1C(=O)c1c(O)c3c(c(O)c1C2=O)C[C@@](O)(C(=O)CO)C[C@@H]3O[C@H]1C[C@H](N)[C@H](O)[C@H](C)O1` [doxorubicin], the intracellular accumulation result in [8] and in [9] was “increased” each time. Moreover, the “sensitivity of cells to the drug” value in the assay with MDA-MB-235 cells is recorded as “improves the sensitivity”. Further, the “increase of intracellular accumulation” value in the assay on MES-SA cells was “more than 2 ×”.

For the molecule `O=C1c2c(O)ccc(O)c2C(=O)c2c(NCCNCCO)ccc(NCCNCCO)c21` [mitoxantrone], the intracellular accumulation entry in assay [10] was “increased”; in the assay on MCF-7 cells, wild type, “increased”.

Turning to “firefly luciferase: purified firefly luciferase (SRE0045-2MG) purchased from Sigma Aldrich”, the “activity of purified firefly luciferase” value with firefly luciferase is given as “significantly decreased activity”.
